Structures can show the parent of a compound that is named as a salt.

The target of the assay is KHK (Homo sapiens (Human), UniProt P50053). The assay can be described thus: In Vitro KHK Enzyme Assay (HTMS).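 Note: primary screen measuring inhibition of KHK-catalysed conversion of D-fructose into fructose 1-phosphate.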 Conditions: 200 μM fructose, 100 μM ATP, 2 nM KHK, 60 min at 25° C.; Fructose-1-P detected by high throughput mass spectrometry. It is filed as biochemical.
Sequence of KHK (P50053 whole entry): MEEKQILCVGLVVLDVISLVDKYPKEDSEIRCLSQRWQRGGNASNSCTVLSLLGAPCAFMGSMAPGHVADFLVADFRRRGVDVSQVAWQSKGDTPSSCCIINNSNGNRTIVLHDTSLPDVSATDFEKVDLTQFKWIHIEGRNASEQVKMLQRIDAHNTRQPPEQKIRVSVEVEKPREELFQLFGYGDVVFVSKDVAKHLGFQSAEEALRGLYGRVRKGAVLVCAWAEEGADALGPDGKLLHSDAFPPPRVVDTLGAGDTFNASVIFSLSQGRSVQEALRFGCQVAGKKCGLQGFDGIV
Description: An enzymatic assay was developed to measure KHK-mediated conversion of D-fructose to Fructose-1-P (F-1-P) using High Throughput Mass Spectroscopy (HTMS) as a means of product detection. This assay served as a primary screen to evaluate the ability to inhibit KHK enzyme activity and it has been adapted to high throughput mass spectrometry (HTMS, BioTrove RapidFire™) format for higher throughput.
The compounds to be tested were dosed in 12-points concentration from 511 μM to 0.5 μM. […] The assay was carried out in 384-well plate format.
A word on the IC50: it is the concentration that gives 50% inhibition. A low value points to inhibition by little substance. On to `CSc1nn(-c2ccccc2)c2cc(N3CCNCC3)ccc12` [Compound 1, 3-(Methylsulfanyl)-1-phenyl-6-piperazin-1-yl-1H-indazole HCl salt], for which the IC50 is 560 nM.

Take `CSc1nn(-c2ccccc2)c2cc(NC(=O)C3CNC3)ccc12` [Compound 2, N-(3-(Methylthio)-1-phenyl-1H-indazol-6-yl)azetidine-3-carboxamide hydrochloride]: half-maximal inhibition (IC50) required 220 nM. Compared with the last compound, the IC50 is about 2.5-fold lower. Compound `CSc1nn(-c2ccccc2)c2cc(NC(=O)CC3CCCCN3)ccc12` (stereo not drawn) [Compound 3, N-(3-(Methylthio)-1-phenyl-1H-indazol-6-yl)-2-(piperidin-2-yl)acetamide hydrochloride] had a half-maximal inhibitory concentration (IC50) of 860 nM. As for `CSc1nn(-c2ccccc2)c2cc(NC(=O)NC3CCNC3)ccc12` (stereo not drawn) [Compound 4, 1-(3-(Methylthio)-1-phenyl-1H-indazol-6-yl)-3-(pyrrolidin-3-yl)urea hydrochloride], half-maximal inhibition (IC50) was put at 450 nM. This IC50 lies about 1.9-fold lower than the previous one. Regarding `CSc1nn(-c2ccccc2)c2cc(NC(=O)C3CCNC3)ccc12` (stereo not drawn) [Compound 5, N-(3-(Methylthio)-1-phenyl-1H-indazol-6-yl)pyrrolidine-3-carboxamide hydrochloride], the concentration for half-maximal inhibition (IC50) turned out to be 590 nM. In the case of `CSc1nn(-c2ccccc2)c2cc(NC(=O)NC3CCNCC3)ccc12` [Compound 7, 1-(3-(Methylthio)-1-phenyl-1H-indazol-6-yl)-3-(piperidin-4-yl)urea hydrochloride], it took 700 nM to reach half-maximal inhibition (IC50). Then `CSc1nn(-c2ccccc2)c2cc(NC(=O)c3ccncc3)ccc12` [Compound 8, N-(3-Methylsulfanyl-1-phenyl-1H-indazol-6-yl)-isonicotinamide], with 1010 nM. For `CSc1nn(-c2ccccc2)c2cc(NC(=O)Cc3ccncc3)ccc12` [Compound 9, N-(3-(Methylthio)-1-phenyl-1H-indazol-6-yl)-2-(pyridin-4-yl)acetamide] the value was 2680 nM; for `CSc1nn(-c2ccccc2)c2cc(N3CC4CC3CN4)ccc12` (stereo not drawn) [Compound 10, 2-(3-(methylthio)-1-phenyl-1H-indazol-6-yl)-2,5-diaza-bicyclo[2.2.1]heptane hydrochloride], 710 nM; for `CSc1nn(-c2ccccc2)c2cc(N3CCCNCC3)ccc12` [Compound 11, 6-(1,4-Diazepan-1-yl)-3-(methylthio)-1-phenyl-1H-indazole hydrochloride], 540 nM. Then `CSc1nn(-c2ccccc2)c2cc(NC(=O)C3CCCNC3)ccc12` (stereo not drawn) [Compound 12, N-(3-(Methylthio)-1-phenyl-1H-indazol-6-yl)piperidine-3-carboxamide hydrochloride], with 310 nM; and `CSc1nn(-c2ccccc2)c2cc(NC(=O)C3CCCN3)ccc12` (stereo not drawn) [Compound 13, N-(3-(Methylthio)-1-phenyl-1H-indazol-6-yl)pyrrolidine-2-carboxamide hydrochloride], with 260 nM; and `CSc1nn(-c2ccccc2)c2cc(NC(=O)c3cccnc3)ccc12` [Compound 14, N-(3-(Methylthio)-1-phenyl-1H-indazol-6-yl)nicotinamide], with 230 nM. For the compound `CSc1nn(-c2ccccc2)c2cc(N3CC(N4CCNCC4)C3)ccc12` [Compound 15, 3-(Methylthio)-1-phenyl-6-(3-(piperazin-1-yl)azetidin-1-yl)-1H-indazole hydrochloride], the IC50 is 560 nM. For the compound `CSc1nn(-c2ccccc2)c2cc(N3CCN(C(=O)C4CCCNC4)CC3)ccc12` (stereo not drawn) [Compound 16, 4-(3-Methylsulfanyl-1-phenyl-1H-indazol-6-yl)-piperazin-1-yl]-piperidin-3-yl-methanone hydrochloride], the IC50 worked out at 2890 nM.

Regarding `CSc1nn(-c2ccccc2)c2cc(N3CCN(C(=O)c4ccncc4)CC3)ccc12` [Compound 17, (4-(3-(Methylthio)-1-phenyl-1H-indazol-6-yl)piperazin-1-yl)(pyridin-4-yl)methanone], the 50% inhibitory concentration (IC50) was 2030 nM. For `CSc1nn(-c2ccccc2)c2cc(N3CCN(Cc4ccncc4)CC3)ccc12` [Compound 18, 3-Methylsulfanyl-1-phenyl-6-(4-pyridin-4-ylmethyl-piperazin-1-yl)-1H-indazole Hydrochloride], the IC50 is 2030 nM. `CSc1nn(-c2ccccc2)c2cc(N3CCC(N4CCNCC4)C3)ccc12` (stereo not drawn) [Compound 19, 3-(Methylthio)-1-phenyl-6-(3-(piperazin-1-yl)pyrrolidin-1-yl)-1H-indazole hydrochloride]: the 50% inhibitory concentration (IC50) is 560 nM. For the compound `CSc1nn(-c2ccccc2)c2cc(N3CCC(N4CCNCC4)CC3)ccc12` [Compound 20, 3-(Methylthio)-1-phenyl-6-(4-(piperazin-1-yl)piperidin-1-yl)-1H-indazole hydrochloride], half-maximal inhibition (IC50) was put at 670 nM. Compound `CSc1nn(-c2ccccc2)c2cc(N3CCN(C4CNC4)CC3)ccc12` [Compound 21, 6-(4-(Azetidin-3-yl)piperazin-1-yl)-3-(methylthio)-1-phenyl-1H-indazole hydrochloride] gave an IC50 of 2820 nM. For `CSc1nn(-c2ccccc2)c2cc(N3CCN(C4CCNC4)CC3)ccc12` (stereo not drawn) [Compound 22, 3-(Methylthio)-1-phenyl-6-(4-(pyrrolidin-3-yl)piperazin-1-yl)-1H-indazole hydrochloride], the midpoint of inhibition, the IC50, lay at 4450 nM.

`CSc1nn(-c2ccccc2)c2cc(N3CCN(C4CCNCC4)CC3)ccc12` [Compound 23, 3-(Methylthio)-1-phenyl-6-(4-(piperidin-4-yl)piperazin-1-yl)-1H-indazole hydrochloride]: the IC50 was 680 nM. `CSc1nn(-c2ccccc2)c2cc(N3CCN(c4ccccn4)CC3)ccc12` [Compound 24, 3-(Methylthio)-1-phenyl-6-(4-(pyridin-2-yl)piperazin-1-yl)-1H-indazole] came in with a concentration for half-maximal inhibition (IC50) of 1560 nM. As for `CSc1nn(-c2ccccc2)c2cc(N3CCN(C4CCNC4)C3=O)ccc12` (stereo not drawn) [Compound 25, 1-(3-(Methylthio)-1-phenyl-1H-indazol-6-yl)-3-(pyrrolidin-3-yl)imidazolidin-2-one hydrochloride], the IC50 worked out at 460 nM. The compound `CSc1nn(-c2ccccc2)c2cc(N3CCN(C4CCNCC4)C3=O)ccc12` [Compound 26, 1-(3-(Methylthio)-1-phenyl-1H-indazol-6-yl)-3-(piperidin-4-yl)imidazolidin-2-one hydrochloride] showed an IC50 of 1470 nM.

`CSc1nn(-c2ccccc2)c2cc(N3CCN(CC4CCNC4)C3=O)ccc12` (stereo not drawn) [Compound 27, 1-(3-(Methylthio)-1-phenyl-1H-indazol-6-yl)-3-(pyrrolidin-3-ylmethyl)imidazolidin-2-one hydrochloride] displayed an IC50 of 5170 nM. With `CSc1nn(-c2ccccc2)c2cc(N3CCN(CC4CCCNC4)C3=O)ccc12` (stereo not drawn) [Compound 28, 1-(3-(Methylthio)-1-phenyl-1H-indazol-6-yl)-3-(piperidin-3-ylmethyl)imidazolidin-2-one hydrochloride], the midpoint of inhibition, the IC50, lay at 3040 nM. For `CSc1nn(-c2ccccc2)c2cc(N3CCN(c4ccncc4)CC3)ccc12` [Compound 29, 3-(Methylthio)-1-phenyl-6-(4-(pyridin-4-yl)piperazin-1-yl)-1H-indazole] the value was 300 nM. `CSc1nn(-c2ccccc2)c2cc(N3CCN(C(=O)c4ccccn4)CC3)ccc12` [Compound 30]: 16400 nM corresponded to half-maximal inhibition (IC50). `CSc1nn(-c2ccccc2)c2cc(N3CCN(C(=O)c4cccnc4)CC3)ccc12` [Compound 31, (4-(3-(Methylthio)-1-phenyl-1H-indazol-6-yl)piperazin-1-yl)(pyridin-3-yl)methanone] gave a half-maximal inhibitory concentration (IC50) of 4950 nM. Compared with the last compound, the IC50 is about 3.3-fold lower.

Source of the values: patent US8822447B2, “Indazole compounds useful as ketohexokinase inhibitors” (Janssen Pharmaceutica NV, priority 2010, dated 2014).
